The test system of data set [1] is BMDM. Nature of the data set: Anti-osteoclastogenesis activity in C57BL/6 mouse BMDM cells assessed as inhibition of RANKL-induced osteoclastogenesis at 1 uM incubated for 7 days in the presence of M-CSF by TRAP-staining based microscopic analysis relative to control. Format: functional. To be noted: C57BL/6, BMDM, 168 h, time 7 day.
Data set [2] relates to BMDM. The data set can be described thus: Anti-osteoclastogenesis activity in C57BL/6 mouse BMDM cells assessed as inhibition of RANKL-induced osteoclastogenesis at 10 uM incubated for 7 days in the presence of M-CSF by TRAP-staining based microscopic analysis relative to control. It is filed as functional. Conditions: C57BL/6, BMDM, 168 h, time 7 day.
Data set [3] is described as follows: Cytotoxicity against C57BL/6 mouse BMDM cells incubated for 48 hrs by MTT assay. Format: toxicity, cell-based. To be noted: BMDM cells (bone marrow-derived macrophages). A general note: Formazan colour is commonly taken as a measure of viable cells.
In data set [4] the target is T1, Kelch-like ECH-associated protein 1 (Homo sapiens, UniProt Q14145). The data set can be described thus: Binding affinity to recombinant human Keap1 assessed as equilibrium dissociation constant by SPR analysis. (In general: In SPR one partner is held on a chip, and binding of the other changes the refractive index at the surface.)
T1 sequence (Q14145 whole entry): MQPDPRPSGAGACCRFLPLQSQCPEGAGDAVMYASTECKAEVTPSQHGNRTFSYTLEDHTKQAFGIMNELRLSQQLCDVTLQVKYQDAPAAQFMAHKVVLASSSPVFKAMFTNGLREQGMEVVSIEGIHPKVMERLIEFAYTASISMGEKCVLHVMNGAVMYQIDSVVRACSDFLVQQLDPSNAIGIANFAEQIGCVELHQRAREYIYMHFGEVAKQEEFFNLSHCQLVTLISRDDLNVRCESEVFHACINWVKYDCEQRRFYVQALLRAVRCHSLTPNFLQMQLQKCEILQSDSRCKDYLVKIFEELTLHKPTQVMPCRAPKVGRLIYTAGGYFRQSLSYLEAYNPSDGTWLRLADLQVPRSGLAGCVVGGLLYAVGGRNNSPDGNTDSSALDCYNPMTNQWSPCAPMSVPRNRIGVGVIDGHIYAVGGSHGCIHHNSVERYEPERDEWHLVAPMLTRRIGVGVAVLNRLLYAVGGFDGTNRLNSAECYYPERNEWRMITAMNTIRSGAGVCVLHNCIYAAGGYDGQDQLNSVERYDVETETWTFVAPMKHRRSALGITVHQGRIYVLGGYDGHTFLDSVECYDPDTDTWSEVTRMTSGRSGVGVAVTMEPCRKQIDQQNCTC
The target in data set [5] is T1, Kelch-like ECH-associated protein 1. Nature of the data set: Binding affinity to recombinant human Keap1 by SPR analysis.

The source made the active and inactive calls. The rule behind the calls is not given here.

The term inhibition denotes the share of the control response that was lost under treatment. In the case of `O=P(O)(O)C(O)(Cn1ccnc1)P(=O)(O)O` [ZOLEDRONIC ACID ANHYDROUS], the inhibition at 1 µM in the data set on BMDM [1] was 87.1%.
The term CC50 denotes the concentration at which the toxic effect on the cells reaches its halfway point. Low readings indicate greater toxicity to the cells, high ones lower toxicity to the cells. As a reminder, the Kd is the constant that tells how readily two partners part at equilibrium. Turning to `CC(=O)O[C@H]1CC[C@](O)(CO)[C@@H]2[C@H](OC(C)=O)[C@@]3(O)[C@H](/C=C(CO)\C=C/[C@H](OC(=O)COC(=O)CC(C)C)[C@@]12C)OC(=O)[C@@H]3C`, the inhibition at 10 µM with BMDM [2] was 33.7%. Further, the half-maximal cytotoxic concentration (CC50) at 48 h in data set [3] is more than 50 µM. Moreover, the Kd in data set [4] is more than 100 µM. The result in data set [5] was inactive.
For the compound `CC(=O)O[C@H]1/C=C\C(CO)=C/[C@@H]2OC(=O)[C@H](C)[C@@]2(O)[C@@H](OC(C)=O)[C@H]2[C@@](O)(CO)CC[C@H](OC(C)=O)[C@]12C`, in the data set with BMDM [2], the inhibition at 10 µM stood at 32%. In addition, the CC50 at 48 h in data set [3] was more than 50 µM. For the same compound, in data set [4], the Kd is 6.6 µM.
As to `CC(=O)O[C@H]1[C@@H](O)[C@](O)(CO)[C@@H]2[C@H](OC(C)=O)[C@@]3(O)[C@H](/C=C(CO)\C=C/[C@H](OC(C)=O)[C@@]2(C)[C@H]1OC(=O)CC(C)C)OC(=O)[C@@H]3C`, in the data set on BMDM [2], the inhibition at 10 µM is 57.6%. Also, the cytotoxic concentration (CC50) at 48 h in data set [3] is more than 50 µM. In addition, the result in data set [5] was inactive.
Consider `CCOCC1=C/[C@@H]2OC(=O)[C@H](C)[C@@]2(O)[C@@H](OC(C)=O)[C@H]2[C@@]3(CO3)[C@H](OC(C)=O)C[C@H](OC(C)=O)[C@]2(C)[C@@H](OC(C)=O)/C=C\1`, for which the inhibition at 10 µM in the data set on BMDM [2] is 88.3%. Moreover, the CC50 at 48 h in data set [3] is more than 50 µM. Further, the Kd in data set [4] was found to be 6.2 µM.
As to `CCOCC1=C/[C@@H]2OC(=O)[C@H](C)[C@@]2(O)[C@@H](OC(C)=O)[C@H]2[C@@]3(CO3)[C@H](OC(C)=O)C[C@H](OC(=O)CC(C)C)[C@]2(C)[C@@H](OC(C)=O)/C=C\1`, the inhibition at 10 µM in the data set with BMDM [2] was found to be 38.4%. In data set [3], this compound displayed a CC50 at 48 h of more than 50 µM. Moreover, the Kd in data set [4] is more than 100 µM.
For `C=C1[C@H](OC(=O)CC(C)C)C[C@H](OC(C)=O)[C@@]2(C)[C@@H](OC(C)=O)C[C@@H](OC(C)=O)[C@]3(CO3)[C@@H]2[C@H](OC(C)=O)[C@]2(O)[C@@H](C)C(=O)O[C@H]2[C@H]1Cl`, in the data set with BMDM [2], the inhibition at 10 µM amounted to 100%. Also, the CC50 at 48 h in data set [3] is more than 50 µM. The result in data set [5] was Active.
`C=C1[C@H]2O[C@]3([C@@H](C)C(=O)O[C@H]3[C@H]1Cl)[C@@H](OC(C)=O)[C@H]1[C@@](O)(CCl)CC[C@H](OC(C)=O)[C@]1(C)[C@@H](OC(C)=O)[C@@H]2OC(C)=O`: the inhibition at 10 µM with BMDM [2] is 98.8%. In data set [3], this compound gave a 50% cytotoxic concentration (CC50) at 48 h of more than 50 µM. The outcome in data set [5] was Active.
Turning to `CC(=O)O[C@H]1[C@@H](OC(=O)CC(C)C)[C@](O)(CO)[C@@H]2[C@H](OC(C)=O)[C@@]3(O)[C@H](/C=C(CO)\C=C/[C@H](OC(C)=O)[C@@]2(C)[C@H]1OC(C)=O)OC(=O)[C@@H]3C`, in the data set with BMDM [2], the inhibition at 10 µM was 34.8%. Besides, the CC50 at 48 h in data set [3] was more than 50 µM. Also, the outcome in data set [5] was inactive.
Turning to `CC(=O)O[C@H]1[C@@H](OC(=O)CC(C)C)[C@](O)(CO)[C@@H]2[C@H](OC(C)=O)[C@@]3(O)[C@H](/C=C(CCl)\C=C/[C@H](OC(C)=O)[C@@]2(C)[C@H]1OC(C)=O)OC(=O)[C@@H]3C`, the inhibition at 10 µM in the data set with BMDM [2] was 20.9%. The compound further showed a CC50 at 48 h in data set [3] of more than 50 µM. In data set [5], the result was inactive.
On the same counts, the results for `C=C1CC[C@H](OC(C)=O)[C@@]2(C)[C@@H](OC(C)=O)C[C@@H](OC(C)=O)[C@]3(CO3)[C@@H]2[C@H](OC(C)=O)[C@]2(O)[C@@H](C)C(=O)O[C@H]2[C@H]1Cl` are 13.5%, more than 50 µM and “Active”.
On the same counts, the results for `C=C1[C@H](Cl)[C@@H]2OC(=O)[C@H](C)[C@]23O[C@]1(O)C[C@H](OC(C)=O)[C@@]1(C)[C@@H](OC(C)=O)C[C@@H](OC(C)=O)[C@]2(CO2)[C@@H]1[C@@H]3OC(C)=O` are 29.3%, more than 50 µM and “Active”.

(Values after ChEMBL document CHEMBL5331068, “Briarane-type diterpenoids, the inhibitors of osteoclast formation by interrupting Keap1-Nrf2 interaction and activating Nrf2 pathway” (Eur J Med Chem, 2023).)
